Source: patent US9113629B2, “4-amino-6-(4-substituted-phenyl)-picolinates and 6-amino-2-(4-substituted-phenyl)-pyrimidine-4-carboxylates and their use as herbicides” (DOW AGROSCIENCES LLC, priority 2013, dated 2015)
Read-outs that look alike come from different tables or passages of the source. One block for each compound: values may come before it.

Key:
[1] = tested on: Key Grass and Sedge Weeds as well as Grass Crops; assay: Post-emergent Test II herbicidal activity (Table 6); type: in vivo; conditions: post-emergence, 336 h; for pest or weed control at 70 g/ha: 70 g ai/ha; for pest or weed control at 140 g/ha: 140 g ai/ha
Summary of the method: (§1)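 Plants grown in Metro-Mix 360 (pH 6.0–6.8) in a greenhouse (~15 h photoperiod, 23–29 °C day) to first or second true leaf stage, then sprayed with compound in acetone/DMSO/aqueous crop-oil-surfactant carrier at 187 L/ha by track sprayer. Injury visually scored 0–100% versus untreated plants after 14 d.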

[2] = tested on: Key Broadleaf Weed and Crop Species; assay: Post-emergent Test II herbicidal activity (Table 5); type: in vivo; conditions: post-emergence, 336 h, 14 days after application; for pest or weed control at 70 g/ha: application rate 70 g ai/ha; for pest or weed control at 140 g/ha: application rate 140 g ai/ha
Summary of the method: as §1

[3] = CYPES: yellow nutsedge (Cyperus esculentus), read-out: Visual Growth Reduction (%) 14 Days After Application, CYPES
[4] = DIGSA: crabgrass (Digitaria sanguinalis), read-out: Visual Growth Reduction (%) 14 Days After Application, DIGSA
[5] = ECHCG: barnyardgrass (Echinochloa crus-galli), read-out: Visual Growth Reduction (%) 14 Days After Application, ECHCG
[6] = ORYSA: rice (Oryza sativa), crop, read-out: Visual Growth Reduction (%) 14 Days After Application, ORYSA
[7] = SETFA: giant foxtail (Setaria faberi), read-out: Visual Growth Reduction (%) 14 Days After Application, SETFA
[8] = SORVU: grain sorghum (Sorghum vulgare), read-out: Visual Growth Reduction (%) 14 Days After Application, SORVU
[9] = TRZSS (wheat, Triticum aestivum), crop, read-out: Visual Growth Reduction (%) 14 Days After Application, TRZSS
[10] = ZEAMX: maize, corn (Zea mays), crop, read-out: Visual Growth Reduction (%) 14 Days After Application, ZEAMX
[11] = ABUTH: velvetleaf (Abutilon theophrasti), read-out: Visual Growth Reduction (%) 14 Days After Application, ABUTH
[12] = AMARE: redroot pigweed (Amaranthus retroflexus), read-out: Visual Growth Reduction (%) 14 Days After Application, AMARE
[13] = BRSNN: oilseed-rape, canola (Brassica napus), read-out: Visual Growth Reduction (%) 14 Days After Application, BRSNN
[14] = CHEAL: lambsquarters (Chenopodium album), read-out: Visual Growth Reduction (%) 14 Days After Application, CHEAL
[15] = EPHHL: wild poinsettia (Euphorbia heterophylla), read-out: Visual Growth Reduction (%) 14 Days After Application, EPHHL
[16] = HELAN: sunflower (Helianthus annuus), read-out: Visual Growth Reduction (%) 14 Days After Application, HELAN
[17] = VIOTR: wild pansy (Viola tricolor), read-out: Visual Growth Reduction (%) 14 Days After Application, VIOTR

melting point: 133 to 135 °C
SMILES: COc1c(N)nc(-c2ccc(Br)cc2F)nc1C(=O)O [Compound 46]
pest or weed control at 70 g/ha [1, 3]: 95 to 100% | pest or weed control at 140 g/ha [1, 3]: 95 to 100% | pest or weed control at 70 g/ha [1, 4]: 45 to 59% | pest or weed control at 140 g/ha [1, 4]: 60 to 74% | pest or weed control at 70 g/ha [1, 5]: 85 to 94% | pest or weed control at 140 g/ha [1, 5]: 85 to 94% | pest or weed control at 70 g/ha [1, 6]: 0 to 29% | pest or weed control at 140 g/ha [1, 6]: 0 to 29% | pest or weed control at 70 g/ha [1, 7]: 75 to 84% | pest or weed control at 140 g/ha [1, 7]: 85 to 94% | pest or weed control at 70 g/ha [1, 8]: 45 to 59% | pest or weed control at 140 g/ha [1, 8]: 60 to 74% | pest or weed control at 70 g/ha [1, 9]: 45 to 59% | pest or weed control at 140 g/ha [1, 9]: 60 to 74% | pest or weed control at 70 g/ha [1, 10]: 45 to 59% | pest or weed control at 140 g/ha [1, 10]: 45 to 59% | pest or weed control at 70 g/ha [2, 11]: 95 to 100% | pest or weed control at 140 g/ha [2, 11]: 95 to 100% | pest or weed control at 70 g/ha [2, 12]: 85 to 94% | pest or weed control at 140 g/ha [2, 12]: 95 to 100% | pest or weed control at 70 g/ha [2, 13]: 95 to 100% | pest or weed control at 140 g/ha [2, 13]: 95 to 100% | pest or weed control at 70 g/ha [2, 14]: 95 to 100% | pest or weed control at 140 g/ha [2, 14]: 95 to 100% | pest or weed control at 70 g/ha [2, 15]: 95 to 100% | pest or weed control at 140 g/ha [2, 15]: 95 to 100% | pest or weed control at 70 g/ha [2, 16]: 85 to 94% | pest or weed control at 140 g/ha [2, 16]: 95 to 100% | pest or weed control at 70 g/ha [2, 17]: 45 to 59% | pest or weed control at 140 g/ha [2, 17]: 95 to 100%

melting point: 141 to 143 °C
SMILES: C#Cc1ccc(-c2nc(C(=O)OC)c(Cl)c(N)c2F)cc1F [Compound 133, methyl 4-amino-3-chloro-6-(4-ethynyl-3-fluorophenyl)-5-fluoropicolinate]
pest or weed control at 70 g/ha [1, 3]: 30 to 44% | pest or weed control at 140 g/ha [1, 3]: 45 to 59% | pest or weed control at 70 g/ha [1, 4]: 0 to 29% | pest or weed control at 140 g/ha [1, 4]: 60 to 74% | pest or weed control at 70 g/ha [1, 5]: 0 to 29% | pest or weed control at 140 g/ha [1, 5]: 60 to 74% | pest or weed control at 70 g/ha [1, 6]: 0 to 29% | pest or weed control at 140 g/ha [1, 6]: 0 to 29% | pest or weed control at 70 g/ha [1, 7]: 45 to 59% | pest or weed control at 140 g/ha [1, 7]: 75 to 84% | pest or weed control at 70 g/ha [1, 8]: 60 to 74% | pest or weed control at 140 g/ha [1, 8]: 75 to 84% | pest or weed control at 70 g/ha [1, 9]: 30 to 44% | pest or weed control at 140 g/ha [1, 9]: 30 to 44% | pest or weed control at 70 g/ha [1, 10]: 95 to 100% | pest or weed control at 140 g/ha [1, 10]: 95 to 100% | pest or weed control at 70 g/ha [2, 11]: 85 to 94% | pest or weed control at 140 g/ha [2, 11]: 95 to 100% | pest or weed control at 70 g/ha [2, 12]: 75 to 84% | pest or weed control at 140 g/ha [2, 12]: 75 to 84% | pest or weed control at 70 g/ha [2, 13]: 75 to 84% | pest or weed control at 140 g/ha [2, 13]: 95 to 100% | pest or weed control at 70 g/ha [2, 14]: 95 to 100% | pest or weed control at 140 g/ha [2, 14]: 95 to 100% | pest or weed control at 70 g/ha [2, 15]: 85 to 94% | pest or weed control at 140 g/ha [2, 15]: 95 to 100% | pest or weed control at 70 g/ha [2, 16]: 95 to 100% | pest or weed control at 140 g/ha [2, 16]: 95 to 100% | pest or weed control at 70 g/ha [2, 17]: 0 to 29% | pest or weed control at 140 g/ha [2, 17]: 30 to 44%

melting point: 119 to 121 °C
SMILES: COc1c(N)nc(-c2ccc(I)c(F)c2F)nc1C(=O)O [Compound 89]
pest or weed control at 70 g/ha [1, 3]: 45 to 59% | pest or weed control at 140 g/ha [1, 3]: 95 to 100% | pest or weed control at 70 g/ha [1, 4]: 45 to 59% | pest or weed control at 140 g/ha [1, 4]: 60 to 74% | pest or weed control at 70 g/ha [1, 5]: 85 to 94% | pest or weed control at 140 g/ha [1, 5]: 85 to 94% | pest or weed control at 70 g/ha [1, 6]: 0 to 29% | pest or weed control at 140 g/ha [1, 6]: 60 to 74% | pest or weed control at 70 g/ha [1, 7]: 85 to 94% | pest or weed control at 140 g/ha [1, 7]: 85 to 94% | pest or weed control at 70 g/ha [1, 8]: 85 to 94% | pest or weed control at 140 g/ha [1, 8]: 95 to 100% | pest or weed control at 70 g/ha [1, 9]: 0 to 29% | pest or weed control at 140 g/ha [1, 9]: 45 to 59% | pest or weed control at 70 g/ha [1, 10]: 45 to 59% | pest or weed control at 140 g/ha [1, 10]: 95 to 100% | pest or weed control at 70 g/ha [2, 11]: 85 to 94% | pest or weed control at 140 g/ha [2, 11]: 95 to 100% | pest or weed control at 70 g/ha [2, 12]: 85 to 94% | pest or weed control at 140 g/ha [2, 12]: 95 to 100% | pest or weed control at 70 g/ha [2, 13]: 95 to 100% | pest or weed control at 140 g/ha [2, 13]: 95 to 100% | pest or weed control at 70 g/ha [2, 14]: 95 to 100% | pest or weed control at 140 g/ha [2, 14]: 95 to 100% | pest or weed control at 70 g/ha [2, 15]: 95 to 100% | pest or weed control at 140 g/ha [2, 15]: 95 to 100% | pest or weed control at 70 g/ha [2, 16]: 95 to 100% | pest or weed control at 140 g/ha [2, 16]: 95 to 100% | pest or weed control at 70 g/ha [2, 17]: 95 to 100% | pest or weed control at 140 g/ha [2, 17]: 95 to 100%

melting point: 152 to 155 °C
SMILES: Nc1c(F)c(-c2ccc(I)cc2F)nc(C(=O)O)c1Cl [Compound 169]
pest or weed control at 70 g/ha [1, 3]: 95 to 100% | pest or weed control at 140 g/ha [1, 3]: 95 to 100% | pest or weed control at 70 g/ha [1, 4]: 75 to 84% | pest or weed control at 140 g/ha [1, 4]: 85 to 94% | pest or weed control at 70 g/ha [1, 5]: 75 to 84% | pest or weed control at 140 g/ha [1, 5]: 75 to 84% | pest or weed control at 70 g/ha [1, 6]: 30 to 44% | pest or weed control at 140 g/ha [1, 6]: 30 to 44% | pest or weed control at 70 g/ha [1, 7]: 95 to 100% | pest or weed control at 140 g/ha [1, 7]: 95 to 100% | pest or weed control at 70 g/ha [1, 8]: 95 to 100% | pest or weed control at 140 g/ha [1, 8]: 95 to 100% | pest or weed control at 70 g/ha [1, 9]: 30 to 44% | pest or weed control at 140 g/ha [1, 9]: 45 to 59% | pest or weed control at 70 g/ha [1, 10]: 95 to 100% | pest or weed control at 140 g/ha [1, 10]: 95 to 100% | pest or weed control at 70 g/ha [2, 11]: 85 to 94% | pest or weed control at 140 g/ha [2, 11]: 85 to 94% | pest or weed control at 70 g/ha [2, 12]: 95 to 100% | pest or weed control at 140 g/ha [2, 12]: 95 to 100% | pest or weed control at 70 g/ha [2, 13]: 95 to 100% | pest or weed control at 140 g/ha [2, 13]: 95 to 100% | pest or weed control at 70 g/ha [2, 14]: 95 to 100% | pest or weed control at 140 g/ha [2, 14]: 95 to 100% | pest or weed control at 70 g/ha [2, 15]: 95 to 100% | pest or weed control at 140 g/ha [2, 15]: 95 to 100% | pest or weed control at 70 g/ha [2, 16]: 95 to 100% | pest or weed control at 140 g/ha [2, 16]: 95 to 100% | pest or weed control at 70 g/ha [2, 17]: 95 to 100% | pest or weed control at 140 g/ha [2, 17]: 95 to 100%
